Results published in ChEMBL document CHEMBL5505966, “Synthesis and pharmacological characterization of conformationally restricted 2-amino-Adipic acid analogs and carboxycyclopropyl glycines as selective metabotropic glutamate 2 receptor agonists” (Eur J Med Chem, 2024).
Active and inactive are the calls of the source. The rule behind the calls is not given here.

Assays:
[1] = molecular target: Metabotropic glutamate receptor 3 (Homo sapiens, UniProt Q14832); test: Agonist activity at human recombinant mGluR3 receptor assessed as inhibition of forskolin-stimulated [3H]cAMP accumulation incubated for 20 mins by SPA kit analysis; format: functional
[2] = molecular target: Metabotropic glutamate receptor 5 (Rattus norvegicus) (UniProt P31424); test: Antagonist activity at rat mGluR5 receptor expressed in HEK293 cells by IP-1 HTRF assay; format: functional, cell-based
[3] = molecular target: Metabotropic glutamate receptor 7 (Rattus norvegicus) (UniProt P35400); test: Agonist activity at rat mGluR7 receptor expressed in HEK293 cells at 100 uM by IP-1 HTRF assay; format: functional, cell-based
[4] = molecular target: Metabotropic glutamate receptor 2 (Rattus norvegicus, UniProt P31421); test: Agonist activity at rat mGluR2 receptor expressed in HEK293 cells by IP-1 HTRF assay; format: functional, cell-based
[5] = molecular target: Metabotropic glutamate receptor 8 (Rattus norvegicus) (UniProt P70579); test: Agonist activity at rat mGluR8 receptor expressed in HEK293 cells at 100 uM by IP-1 HTRF assay; format: functional, cell-based
[6] = molecular target: Metabotropic glutamate receptor 3 (Rattus norvegicus) (UniProt P31422); test: Antagonist activity at rat mGluR3 receptor expressed in HEK293 cells by IP-1 HTRF assay; format: functional, cell-based
[7] = molecular target: Metabotropic glutamate receptor 5 (Rattus norvegicus) (UniProt P31424); test: Agonist activity at rat mGluR5 receptor expressed in HEK293 cells at 100 uM by IP-1 HTRF assay; format: functional, cell-based
[8] = molecular target: Metabotropic glutamate receptor 1 (Rattus norvegicus) (UniProt P23385); test: Antagonist activity at rat mGluR1 receptor expressed in HEK293 cells by IP-1 HTRF assay; format: functional, cell-based
[9] = molecular target: Metabotropic glutamate receptor 4 (Rattus norvegicus) (UniProt P31423); test: Antagonist activity at rat mGluR4 receptor expressed in HEK293 cells by IP-1 HTRF assay; format: functional, cell-based
[10] = molecular target: Metabotropic glutamate receptor 6 (Rattus norvegicus) (UniProt P35349); test: Antagonist activity at rat mGluR6 receptor expressed in HEK293 cells by IP-1 HTRF assay; format: functional, cell-based
[11] = molecular target: Metabotropic glutamate receptor 6 (Rattus norvegicus) (UniProt P35349); test: Agonist activity at rat mGluR6 receptor expressed in HEK293 cells at 100 uM by IP-1 HTRF assay; format: functional, cell-based
[12] = molecular target: Metabotropic glutamate receptor 7 (Rattus norvegicus) (UniProt P35400); test: Antagonist activity at rat mGluR7 receptor expressed in HEK293 cells by IP-1 HTRF assay; format: functional, cell-based
[13] = molecular target: Metabotropic glutamate receptor 4 (Rattus norvegicus) (UniProt P31423); test: Agonist activity at rat mGluR4 receptor expressed in HEK293 cells at 100 uM by IP-1 HTRF assay; format: functional, cell-based
[14] = molecular target: Metabotropic glutamate receptor 2 (Rattus norvegicus) (UniProt P31421); test: Antagonist activity at rat mGluR2 receptor expressed in HEK293 cells by IP-1 HTRF assay; format: functional, cell-based
[15] = molecular target: Metabotropic glutamate receptor 8 (Rattus norvegicus) (UniProt P70579); test: Antagonist activity at rat mGluR8 receptor expressed in HEK293 cells by IP-1 HTRF assay; format: functional, cell-based
[16] = molecular target: Metabotropic glutamate receptor 1 (Rattus norvegicus) (UniProt P23385); test: Agonist activity at rat mGluR1 receptor expressed in HEK293 cells at 100 uM by IP-1 HTRF assay; format: functional, cell-based
[17] = molecular target: Metabotropic glutamate receptor 3 (Rattus norvegicus) (UniProt P31422); test: Agonist activity at rat mGluR3 receptor expressed in HEK293 cells at 100 uM by IP-1 HTRF assay; format: functional, cell-based
[18] = molecular target: Metabotropic glutamate receptor 8 (Rattus norvegicus) (UniProt P70579); test: Agonist activity at rat mGluR8 receptor expressed in HEK293 cells at 30 uM by IP-1 HTRF assay; format: functional, cell-based
[19] = molecular target: Metabotropic glutamate receptor 5 (Rattus norvegicus) (UniProt P31424); test: Agonist activity at rat mGluR5 receptor expressed in HEK293 cells at 30 uM by IP-1 HTRF assay; format: functional, cell-based
[20] = molecular target: Metabotropic glutamate receptor 4 (Rattus norvegicus) (UniProt P31423); test: Agonist activity at rat mGluR4 receptor expressed in HEK293 cells at 30 uM by IP-1 HTRF assay; format: functional, cell-based
[21] = molecular target: Metabotropic glutamate receptor 1 (Rattus norvegicus) (UniProt P23385); test: Agonist activity at rat mGluR1 receptor expressed in HEK293 cells at 30 uM by IP-1 HTRF assay; format: functional, cell-based
[22] = molecular target: Metabotropic glutamate receptor 6 (Rattus norvegicus) (UniProt P35349); test: Agonist activity at rat mGluR6 receptor expressed in HEK293 cells at 30 uM by IP-1 HTRF assay; format: functional, cell-based
[23] = molecular target: Metabotropic glutamate receptor 3 (Rattus norvegicus) (UniProt P31422); test: Agonist activity at rat mGluR3 receptor expressed in HEK293 cells at 30 uM by IP-1 HTRF assay; format: functional, cell-based
[24] = molecular target: Metabotropic glutamate receptor 7 (Rattus norvegicus) (UniProt P35400); test: Agonist activity at rat mGluR7 receptor expressed in HEK293 cells at 30 uM by IP-1 HTRF assay; format: functional, cell-based
[25] = molecular target: Metabotropic glutamate receptor 2 (Rattus norvegicus) (UniProt P31421); test: Agonist activity at rat mGluR2 receptor expressed in HEK293 cells at 30 uM by IP-1 HTRF assay; format: functional, cell-based
[26] = molecular target: Metabotropic glutamate receptor 2 (Homo sapiens, UniProt Q14416); test: Agonist activity at human recombinant mGluR2 receptor assessed as inhibition of forskolin-stimulated [3H]cAMP accumulation incubated for 20 mins by SPA kit analysis; format: functional

Metabotropic glutamate receptor 1 (Rattus norvegicus), sequence (P23385 19-1199 limits assumed): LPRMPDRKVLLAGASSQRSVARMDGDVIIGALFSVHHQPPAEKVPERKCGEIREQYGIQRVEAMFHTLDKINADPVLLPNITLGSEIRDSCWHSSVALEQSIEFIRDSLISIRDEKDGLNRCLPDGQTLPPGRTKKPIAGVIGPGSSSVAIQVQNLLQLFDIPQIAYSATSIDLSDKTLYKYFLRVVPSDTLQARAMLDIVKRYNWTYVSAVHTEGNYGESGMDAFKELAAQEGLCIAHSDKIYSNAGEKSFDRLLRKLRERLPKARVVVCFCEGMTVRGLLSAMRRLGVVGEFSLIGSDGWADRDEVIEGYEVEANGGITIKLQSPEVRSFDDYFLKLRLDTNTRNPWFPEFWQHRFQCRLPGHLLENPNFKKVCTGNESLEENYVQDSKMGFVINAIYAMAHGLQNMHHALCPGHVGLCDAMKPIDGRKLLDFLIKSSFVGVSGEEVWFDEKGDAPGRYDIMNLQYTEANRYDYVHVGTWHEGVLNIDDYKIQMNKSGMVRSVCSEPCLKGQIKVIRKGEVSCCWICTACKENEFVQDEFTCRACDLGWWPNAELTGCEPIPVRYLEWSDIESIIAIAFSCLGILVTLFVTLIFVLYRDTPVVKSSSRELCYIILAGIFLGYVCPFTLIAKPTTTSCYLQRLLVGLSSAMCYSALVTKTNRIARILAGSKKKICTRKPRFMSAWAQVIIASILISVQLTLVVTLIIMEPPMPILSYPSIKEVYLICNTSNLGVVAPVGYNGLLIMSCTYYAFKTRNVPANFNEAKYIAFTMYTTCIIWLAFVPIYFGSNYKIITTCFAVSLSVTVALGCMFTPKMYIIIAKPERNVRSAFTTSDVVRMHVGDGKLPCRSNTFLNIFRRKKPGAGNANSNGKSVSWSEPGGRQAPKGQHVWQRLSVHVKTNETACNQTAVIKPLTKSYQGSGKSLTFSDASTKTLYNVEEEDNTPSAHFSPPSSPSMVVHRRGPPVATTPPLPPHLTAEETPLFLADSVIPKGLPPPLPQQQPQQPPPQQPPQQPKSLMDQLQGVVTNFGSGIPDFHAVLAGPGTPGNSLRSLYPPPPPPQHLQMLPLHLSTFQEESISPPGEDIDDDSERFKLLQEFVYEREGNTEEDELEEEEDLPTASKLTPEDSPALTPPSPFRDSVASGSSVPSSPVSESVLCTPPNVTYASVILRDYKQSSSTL
Metabotropic glutamate receptor 7 (Rattus norvegicus), sequence (P35400 whole entry): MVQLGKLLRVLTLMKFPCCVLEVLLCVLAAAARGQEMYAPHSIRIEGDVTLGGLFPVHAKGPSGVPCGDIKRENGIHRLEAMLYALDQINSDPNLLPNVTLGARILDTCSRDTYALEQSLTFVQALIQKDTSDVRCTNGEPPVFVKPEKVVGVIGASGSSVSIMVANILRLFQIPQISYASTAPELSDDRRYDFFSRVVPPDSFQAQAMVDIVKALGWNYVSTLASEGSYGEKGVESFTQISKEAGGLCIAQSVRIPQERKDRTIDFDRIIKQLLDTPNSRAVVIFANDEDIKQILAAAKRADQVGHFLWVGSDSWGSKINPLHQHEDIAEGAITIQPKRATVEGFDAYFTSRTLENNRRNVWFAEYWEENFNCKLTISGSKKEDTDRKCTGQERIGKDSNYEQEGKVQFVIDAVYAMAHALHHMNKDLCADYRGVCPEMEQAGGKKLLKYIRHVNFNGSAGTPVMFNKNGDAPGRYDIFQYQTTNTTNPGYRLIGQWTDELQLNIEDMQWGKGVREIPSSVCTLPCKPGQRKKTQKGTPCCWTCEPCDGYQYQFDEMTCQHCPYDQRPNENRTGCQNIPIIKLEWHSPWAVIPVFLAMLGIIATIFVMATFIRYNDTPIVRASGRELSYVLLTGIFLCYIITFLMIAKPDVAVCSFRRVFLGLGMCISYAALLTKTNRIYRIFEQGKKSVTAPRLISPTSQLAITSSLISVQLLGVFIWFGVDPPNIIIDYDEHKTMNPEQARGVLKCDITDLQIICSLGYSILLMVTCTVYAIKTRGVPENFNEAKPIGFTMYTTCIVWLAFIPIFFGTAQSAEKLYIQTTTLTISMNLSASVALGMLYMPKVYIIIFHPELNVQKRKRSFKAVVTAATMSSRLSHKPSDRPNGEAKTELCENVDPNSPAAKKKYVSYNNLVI
Metabotropic glutamate receptor 2 (Rattus norvegicus), sequence (P31421 19-872 limits assumed): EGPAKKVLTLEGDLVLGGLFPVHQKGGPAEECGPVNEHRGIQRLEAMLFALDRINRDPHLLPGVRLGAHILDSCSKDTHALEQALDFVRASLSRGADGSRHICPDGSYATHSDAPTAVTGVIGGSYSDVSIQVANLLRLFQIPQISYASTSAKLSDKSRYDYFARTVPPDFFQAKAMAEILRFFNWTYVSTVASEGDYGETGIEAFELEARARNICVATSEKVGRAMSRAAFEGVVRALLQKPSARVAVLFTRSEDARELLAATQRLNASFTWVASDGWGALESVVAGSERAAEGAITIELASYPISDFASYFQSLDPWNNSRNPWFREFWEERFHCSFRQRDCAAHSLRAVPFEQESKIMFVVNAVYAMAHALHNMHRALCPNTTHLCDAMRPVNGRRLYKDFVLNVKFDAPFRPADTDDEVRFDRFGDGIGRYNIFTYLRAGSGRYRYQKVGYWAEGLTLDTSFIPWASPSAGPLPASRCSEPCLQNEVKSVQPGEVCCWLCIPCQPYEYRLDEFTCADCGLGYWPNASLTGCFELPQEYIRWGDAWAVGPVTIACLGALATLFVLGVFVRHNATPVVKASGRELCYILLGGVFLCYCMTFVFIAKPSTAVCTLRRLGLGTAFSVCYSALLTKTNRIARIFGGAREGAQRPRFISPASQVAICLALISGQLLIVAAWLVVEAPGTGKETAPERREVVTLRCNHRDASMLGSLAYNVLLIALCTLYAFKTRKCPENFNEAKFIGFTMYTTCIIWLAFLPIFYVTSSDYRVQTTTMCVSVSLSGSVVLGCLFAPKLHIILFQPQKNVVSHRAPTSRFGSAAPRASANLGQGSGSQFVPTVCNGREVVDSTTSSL
Metabotropic glutamate receptor 4 (Rattus norvegicus), sequence (P31423 whole entry): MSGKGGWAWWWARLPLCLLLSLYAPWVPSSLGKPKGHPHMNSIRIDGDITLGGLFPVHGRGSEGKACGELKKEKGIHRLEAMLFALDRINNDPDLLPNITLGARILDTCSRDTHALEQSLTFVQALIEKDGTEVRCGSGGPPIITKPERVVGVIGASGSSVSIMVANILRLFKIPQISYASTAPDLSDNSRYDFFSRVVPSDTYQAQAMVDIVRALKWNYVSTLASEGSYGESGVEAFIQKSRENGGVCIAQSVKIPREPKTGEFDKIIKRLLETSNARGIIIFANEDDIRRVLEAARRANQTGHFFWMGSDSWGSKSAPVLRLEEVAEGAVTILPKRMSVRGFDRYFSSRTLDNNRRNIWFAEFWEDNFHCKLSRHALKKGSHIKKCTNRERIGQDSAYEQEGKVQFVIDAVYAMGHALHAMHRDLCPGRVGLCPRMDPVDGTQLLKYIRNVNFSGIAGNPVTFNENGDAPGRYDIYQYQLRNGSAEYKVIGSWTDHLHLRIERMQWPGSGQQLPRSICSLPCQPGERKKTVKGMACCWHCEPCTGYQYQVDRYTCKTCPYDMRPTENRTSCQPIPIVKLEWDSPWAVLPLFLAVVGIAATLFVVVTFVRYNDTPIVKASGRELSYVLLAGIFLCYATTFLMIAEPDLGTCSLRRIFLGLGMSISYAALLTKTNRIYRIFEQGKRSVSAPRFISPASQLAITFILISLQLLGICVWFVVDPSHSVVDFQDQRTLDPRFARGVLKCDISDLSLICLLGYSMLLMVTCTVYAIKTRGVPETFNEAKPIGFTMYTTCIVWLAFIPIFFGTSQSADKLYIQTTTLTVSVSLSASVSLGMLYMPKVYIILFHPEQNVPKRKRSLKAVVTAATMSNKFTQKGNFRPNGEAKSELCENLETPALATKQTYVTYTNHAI
Metabotropic glutamate receptor 3 (Rattus norvegicus), sequence (P31422 23-879 limits assumed): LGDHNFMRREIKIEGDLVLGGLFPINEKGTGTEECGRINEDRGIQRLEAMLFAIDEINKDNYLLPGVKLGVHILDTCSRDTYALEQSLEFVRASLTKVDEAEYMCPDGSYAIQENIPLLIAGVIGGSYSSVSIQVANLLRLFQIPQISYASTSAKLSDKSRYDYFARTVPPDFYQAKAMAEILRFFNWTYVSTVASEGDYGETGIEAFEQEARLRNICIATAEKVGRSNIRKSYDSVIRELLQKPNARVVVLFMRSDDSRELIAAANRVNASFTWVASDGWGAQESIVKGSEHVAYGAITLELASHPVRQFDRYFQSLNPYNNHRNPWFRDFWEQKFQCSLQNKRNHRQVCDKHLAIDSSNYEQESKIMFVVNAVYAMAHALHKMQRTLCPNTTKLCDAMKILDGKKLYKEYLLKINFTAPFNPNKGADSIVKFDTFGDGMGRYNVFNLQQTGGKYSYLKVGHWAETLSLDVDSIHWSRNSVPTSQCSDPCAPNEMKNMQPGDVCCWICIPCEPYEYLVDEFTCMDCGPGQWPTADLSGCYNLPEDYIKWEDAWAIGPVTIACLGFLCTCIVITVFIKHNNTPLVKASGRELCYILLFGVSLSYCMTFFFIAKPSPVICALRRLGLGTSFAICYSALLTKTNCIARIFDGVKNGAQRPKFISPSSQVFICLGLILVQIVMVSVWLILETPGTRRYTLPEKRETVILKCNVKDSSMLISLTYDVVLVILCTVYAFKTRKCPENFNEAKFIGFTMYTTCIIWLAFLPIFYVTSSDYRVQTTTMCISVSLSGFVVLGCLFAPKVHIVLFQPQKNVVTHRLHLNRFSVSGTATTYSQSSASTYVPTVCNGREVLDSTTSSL

Compound	EC50 [1] [nM]	inhibition [2]	inhibition [6]	inhibition [8]	inhibition [9]	inhibition [10]	inhibition [12]	inhibition [14]	inhibition [15]	further results
N[C@H](C(=O)O)[C@H]1[C@@H](CO)[C@@H]1C(=O)O	38	–	–	–	–	–	–	–	–	–
N[C@@]1(C(=O)O)CC[C@@H](C(=O)O)C1	860000	–	–	–	–	–	–	–	–	–
C[C@H]1[C@H](C(=O)O)[C@H]1[C@H](N)C(=O)O	38	–	–	–	–	–	–	–	–	EC50 [26]: 8 nM
N[C@H](C(=O)O)[C@H]1C[C@@H]1C(=O)O	600	–	–	–	–	–	–	–	–	EC50 [26]: 300 nM

Continued, in another order:

EC50 [1] [nM]	inhibition [2]	inhibition [6]	inhibition [8]	inhibition [9]	inhibition [10]	inhibition [12]	inhibition [14]	inhibition [15]	Compound	further results
–	inactive	inactive	inactive	inactive	inactive	inactive	inactive	inactive	C[C@@]1(C(=O)O)C[C@@H]1C[C@H](N)C(=O)O (mixture of isomers)	Activity [3]: inactive; EC50 ([4]; read-out: EC50): 10000 nM; EC50 ([4]; read-out: pEC50 (converted)): 15800 nM; Activity [5]: inactive; Activity [7]: inactive; Activity [11]: inactive; Activity [13]: inactive; Activity [16]: inactive; Activity [17]: inactive
–	inactive	inactive	inactive	inactive	inactive	inactive	inactive	inactive	C[C@@]1(C[C@H](N)C(=O)O)C[C@H]1C(=O)O	Activity [18]: inactive; Activity [19]: inactive; Activity [20]: inactive; Activity [21]: inactive; Activity [22]: inactive; Activity [23]: inactive; Activity [24]: inactive; Activity [25]: inactive
–	inactive	inactive	inactive	inactive	inactive	inactive	inactive	inactive	CC[C@]1(C(=O)O)C[C@@H]1[C@H](N)C(=O)O	Activity [18]: inactive; Activity [19]: inactive; Activity [20]: inactive; Activity [21]: inactive; Activity [22]: inactive; Activity [23]: inactive; Activity [24]: inactive; Activity [25]: inactive
